Measured values reported in the NIST ThermoML archive (doi:10.1016/j.fluid.2015.07.026).
± gives the expanded uncertainty stated by the source.

Conditions: Liquid, Pendant drop shape

## [Ar] [argon] + O
298.01 K, 2000 kPa
  interfacial tension: 71.6 ± 2.3 mN/m
298.01 K, 5000 kPa
  interfacial tension: 69.7 ± 2.2 mN/m
298.01 K, 10000 kPa
  interfacial tension: 67.4 ± 2.2 mN/m
298.01 K, 15000 kPa
  interfacial tension: 65.3 ± 2.1 mN/m
298.01 K, 20000 kPa
  interfacial tension: 63.3 ± 2 mN/m
298.01 K, 25000 kPa
  interfacial tension: 61.9 ± 2 mN/m
298.01 K, 30000 kPa
  interfacial tension: 60.7 ± 1.9 mN/m
298.01 K, 40000 kPa
  interfacial tension: 58.6 ± 1.9 mN/m
298.01 K, 50000 kPa
  interfacial tension: 57 ± 2 mN/m
323.16 K, 2000 kPa
  interfacial tension: 67.1 ± 2.1 mN/m
323.16 K, 5000 kPa
  interfacial tension: 65.7 ± 2.1 mN/m
323.16 K, 10000 kPa
  interfacial tension: 63.2 ± 2 mN/m
323.16 K, 15000 kPa
  interfacial tension: 61.1 ± 2 mN/m
323.16 K, 20000 kPa
  interfacial tension: 59.4 ± 1.9 mN/m
323.16 K, 25000 kPa
  interfacial tension: 57.9 ± 1.9 mN/m
323.16 K, 30000 kPa
  interfacial tension: 56.5 ± 1.8 mN/m
323.16 K, 40000 kPa
  interfacial tension: 54.5 ± 1.7 mN/m
323.16 K, 50000 kPa
  interfacial tension: 53.3 ± 1.7 mN/m
373.28 K, 2000 kPa
  interfacial tension: 58.5 ± 1.9 mN/m
373.28 K, 5000 kPa
  interfacial tension: 57.2 ± 1.8 mN/m
373.28 K, 10000 kPa
  interfacial tension: 55.5 ± 1.8 mN/m
373.28 K, 15000 kPa
  interfacial tension: 53.9 ± 1.7 mN/m
373.28 K, 20000 kPa
  interfacial tension: 52.7 ± 1.7 mN/m
373.28 K, 25000 kPa
  interfacial tension: 51.6 ± 1.7 mN/m
373.28 K, 30000 kPa
  interfacial tension: 50.8 ± 1.6 mN/m
373.28 K, 40000 kPa
  interfacial tension: 49.3 ± 1.6 mN/m
373.28 K, 50000 kPa
  interfacial tension: 48.2 ± 1.5 mN/m
448.07 K, 2000 kPa
  interfacial tension: 43.1 ± 1.4 mN/m
448.07 K, 5000 kPa
  interfacial tension: 42.5 ± 1.4 mN/m
448.07 K, 10000 kPa
  interfacial tension: 41.3 ± 1.3 mN/m
448.07 K, 15000 kPa
  interfacial tension: 40.3 ± 1.3 mN/m
448.07 K, 20000 kPa
  interfacial tension: 39.5 ± 1.3 mN/m
448.07 K, 25000 kPa
  interfacial tension: 38.8 ± 1.2 mN/m
448.07 K, 30000 kPa
  interfacial tension: 38.3 ± 1.2 mN/m
448.07 K, 40000 kPa
  interfacial tension: 37.3 ± 1.2 mN/m
448.07 K, 50000 kPa
  interfacial tension: 36.6 ± 1.2 mN/m
473.53 K, 2000 kPa
  interfacial tension: 37.3 ± 1.2 mN/m
473.53 K, 5000 kPa
  interfacial tension: 36.5 ± 1.2 mN/m
473.53 K, 10000 kPa
  interfacial tension: 35.6 ± 1.1 mN/m
473.53 K, 15000 kPa
  interfacial tension: 34.8 ± 1.1 mN/m
473.53 K, 20000 kPa
  interfacial tension: 34.1 ± 1.1 mN/m
473.53 K, 25000 kPa
  interfacial tension: 33.7 ± 1.1 mN/m
473.53 K, 30000 kPa
  interfacial tension: 33.1 ± 1.1 mN/m
473.53 K, 40000 kPa
  interfacial tension: 32.9 ± 1.1 mN/m
473.53 K, 50000 kPa
  interfacial tension: 32.8 ± 1.1 mN/m
